“Also recorded” adds a separate entry of the source. Where two headings read alike, the source gives them in different places.
What was measured:
[1] = test system: intracellular L. donovani amastigotes; experiment: Intracellular amastigote assay: infected macrophages treated 72 h, saponin lysis, transformation to promastigotes, Alamar blue; type: cell-based, Leishmania donovani; details: for Effect on intracellular amastigotes at the highest concentration tested: 45 µM, after an "activity valley" at 15 µM; for EC50: Leishmania donovani, Macrophage
[2] = test system: extracellular L. donovani amastigotes; experiment: Extracellular assay on amastigotes freshly isolated from mouse spleens, 72 h at 26°C, Alamar blue; type: cell-based, Leishmania donovani; details: for EC50: Leishmania donovani; for Cellular (leishmanicidal) activity in words: extracellular assay
[3] = test system: bone marrow derived macrophages
L. donovani NMT = L. donovani NMT (Leishmania donovani, UniProt D0AB09); experiment: biochemical; type: biochemical
[4] = NMT inhibitors, 72 h in infected macrophages, n.p. = not possible
[5] = 72 h, read-out: EC50 extracellular L. donovani amastigotes
[6] = NMT inhibitors, 72 h at 26°C, read-out: EC50 extracellular L. donovani amastigotes
[7] = 72 h, 3-day treatment of infected bone marrow derived macrophages, mean of biological repeats, read-out: EC50 ± SD intracellular L. donovani amastigotes
[8] = Figure 3, representative dose response curve, 72 h incubation, read-out: EC50 intracellular L. donovani amastigotes, representative plot
[9] = 72 h, 3-day treatment, splenic amastigotes from Rag2−/− mice, incubation at 26°C, read-out: EC50 ± SD extracellular L. donovani amastigotes

Sequence of L. donovani NMT (D0AB09 1-421): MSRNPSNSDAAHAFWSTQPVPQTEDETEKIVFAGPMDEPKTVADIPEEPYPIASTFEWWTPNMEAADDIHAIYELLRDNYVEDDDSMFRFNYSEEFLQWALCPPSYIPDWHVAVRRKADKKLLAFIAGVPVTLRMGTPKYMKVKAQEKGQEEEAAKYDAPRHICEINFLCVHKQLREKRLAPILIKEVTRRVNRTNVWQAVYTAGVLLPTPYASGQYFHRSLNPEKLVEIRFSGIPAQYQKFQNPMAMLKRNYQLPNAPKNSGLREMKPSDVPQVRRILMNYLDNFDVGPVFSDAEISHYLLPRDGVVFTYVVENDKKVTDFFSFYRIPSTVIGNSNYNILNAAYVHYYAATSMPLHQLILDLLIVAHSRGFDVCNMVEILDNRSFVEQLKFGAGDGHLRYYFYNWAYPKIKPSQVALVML

SMILES: Cc1nn(C)c(C)c1NS(=O)(=O)c1c(Cl)cc(-c2ccnc(N3CCNCC3)c2)cc1Cl [DDD85646]
- Effect on intracellular amastigotes at the highest concentration tested [1]: complete killing of the parasites; also recorded: all amastigotes cleared from the macrophages
- EC50 intracellular L. donovani amastigotes [1, 4]: n.p.
- EC50 [2, 5]: 8000 nM
- LD50 bone marrow derived macrophages ([3]; 72 h): >45 µM

SMILES: CN1CCC(N(C)c2nc(N(C)CCC#N)c3sccc3n2)CC1 [IMP-0000083]
- IC50 (L. donovani NMT): 281 nM
- Fold less potent in inhibition of LdNMT than IMP-0000195 (L. donovani NMT; relative to IMP-0000195): ~4 fold
- Activity in the intracellular assay (in words) [1]: no activity
- EC50 [2, 6]: 24000 nM
- Cellular (leishmanicidal) activity in words [2]: moderate cellular activity
- Host cell toxicity (in words) [3]: no toxicity to host cells
- LD50 bone marrow derived macrophages ([3]; 72 h): >45 µM
- Concentration up to which no host cell cytotoxicity was seen ([3]; female, BALB/c, mouse, 72 h): at least 45 µM

SMILES: C[C@@H]1[C@H](O)[C@@H](C)/C=C/C=C/C=C/C=C/C=C/C=C/C=C/[C@H](O[C@@H]2O[C@H](C)[C@@H](O)[C@H](N)[C@@H]2O)C[C@@H]2O[C@](O)(C[C@@H](O)C[C@@H](O)[C@H](O)CC[C@@H](O)C[C@@H](O)CC(=O)O[C@H]1C)C[C@H](O)[C@H]2C(=O)O [Amphotericin B, amphotericin B]
- EC50 [1, 7]: 30 ± 9 nM
- EC50 [1, 8]: 29 nM
- EC50 [2, 9]: 50 ± 11 nM

SMILES: Cc1nn(C)c(C)c1N(C(F)F)[S+](=O)([O-])c1c(Cl)cc(-c2ccnc(N3CCNCC3)c2)cc1Cl [DDD100887]
- EC50 ([1]; NMT inhibitors, 72 h in infected macrophages, n.p. = not possible, read-out: EC50 intracellular L. donovani amastigotes): 190 nM
- EC50 [2, 6]: 660 nM
- LD50 bone marrow derived macrophages ([3]; female, BALB/c, mouse, 72 h): 23 µM

SMILES: CCCCCCCCCCCCCCCCOP(=O)([O-])OCC[N+](C)(C)C [Miltefosine, miltefosine]
- EC50 [1, 7]: 1380 ± 60 nM
- EC50 [1, 8]: 1450 nM
- EC50 [2, 9]: 7850 ± 500 nM

SMILES: N[C@@H](CC(=O)N1C[C@H](CO)[C@@H](c2ccc(Cl)cc2)C1)Cc1ccc(Cl)cc1 [IMP-0000195]
- IC50 (L. donovani NMT; read-out: IC50 L. donovani NMT): 76.5 nM
- EC50 [2, 6]: 12000 nM
- LD50 bone marrow derived macrophages ([3]; female, BALB/c, mouse, 72 h): 12 µM
- Host cell toxicity (in words) ([3]; macrophages): equally toxic to macrophages; also recorded: host cell toxicity and no selectivity

SMILES: c1cncc(CCNCc2cccc(-c3cccc(CN4CCc5ncsc5C4)c3)c2)c1 [IMP-0000197]
- Activity in the intracellular assay (in words) [1]: no activity
- EC50 [2, 6]: 16000 nM
- Cellular (leishmanicidal) activity in words [2]: moderate cellular activity
- Concentration up to which no host cell cytotoxicity was seen [3]: at least 45 µM
- LD50 bone marrow derived macrophages ([3]; female, BALB/c, mouse, 72 h): 50 µM

SMILES: O=C(Cc1ccc(F)cc1)Nc1ccc2[nH]cc(C3CCNCC3)c2c1 [IMP-0000556]
- EC50 [2, 5]: > 30000 nM
- Cellular (leishmanicidal) activity in words [2]: did not result in any leishmanicidal activity
- LD50 bone marrow derived macrophages ([3]; female, BALB/c, mouse, 72 h): >45 µM

SMILES: Cc1nn(C)c(C)c1NS(=O)(=O)c1c(Cl)cc(-c2ccnc(N3CCN(C)CC3)c2)cc1Cl [DDD86211]
- Effect on intracellular amastigotes at the highest concentration tested [1]: complete killing of the parasites; also recorded: all amastigotes cleared from the macrophages
- EC50 intracellular L. donovani amastigotes [1, 4]: n.p.
- EC50 [2, 6]: 180 nM
- LD50 bone marrow derived macrophages ([3]; female, BALB/c, mouse, 72 h): >45 µM
